Patent publication US20230157952A1, “METHOD FOR IMPROVING THE STABILITY OF A PHARMACEUTICAL COMPOSITION COMPRISING A HIGH PENETRATION DRUG, AND THE PHARMACEUTICAL COMPOSITION OBTAINED THEREFROM” (Techfields Inc., priority 2020, published 2023)

How the values were obtained:
Format in all cases: physicochemical
[1] = Stability of the pure HPDs (dry solid) at 25° C./RH 60%; conditions: for Purity: pure HPD, 25° C./RH 60%
[2] = Effect of pH value on the stability of the solution (purity); conditions: for Purity(%) from day 0-28: 25° C.
[3] = Effect of temperature (and pH) on the stability of the solution (purity)
[4] = 5% solution with 1 equivalent sodium acetate in 25% ethanol, pH 4.49-4.51

## H-Val-Pro-Asp[OCH(CH3)2]-Pro-Arg(NO2)—OCH(CH3)2•HCl [T-3]
[1]; pure HPD at 25° C./RH 60%
  Purity at 3 month: 99.0 ± 0.2
  Purity at 6 month: 99.0 ± 0.2
  Purity at 9 month: 98.8 ± 0.2
  Purity at 12 month: 98.7 ± 0.0
  Purity at 18 month: 98.6 ± 0.0
  Purity at 24 month: 98.5 ± 0.2
  Purity at Day 0: 99.1 ± 0.2
[1]; room temperature (25° C./RH 60%)
  Stability of the pure powder: very stable
[2]; 5% solution in 25% ethanol at 25° C.
  pH at which the solution is stable: 3-6
[2]; 5% solution in 25% ethanol, pH 3-6
  Time the solution can be stored at room temperature: about 1 year
[3]; [4]
  Purity (%) at day 30 (60° C.): 33.2 ± 0.3%
  Purity (%) at day 90 (60° C.): 0%
  Purity (%) at day 180 (60° C.): 0%
  Purity (%) at day 360 (60° C.): 0%
  Purity(%) at day 0: 99.1 ± 0.1%
  Purity(%) at day 30 (5° C.): 98.9 ± 0.2%
  Purity(%) at day 30 (25° C.): 97.9 ± 0.3%
  Purity(%) at day 30 (40° C.): 71.9 ± 0.2%
  Purity(%) at day 90 (5° C.): 98.6 ± 0.3%
  Purity(%) at day 90 (25° C.): 97.2 ± 0.3%
  Purity(%) at day 90 (40° C.): 34.2 ± 0.3%
  Purity(%) at day 180 (5° C.): 97.9 ± 0.2%
  Purity(%) at day 180 (25° C.): 95.2 ± 0.3%
  Purity(%) at day 180 (40° C.): 13.5 ± 0.3%
  Purity(%) at day 360 (5° C.): 97.4 ± 0.3%
  Purity(%) at day 360 (25° C.): 92.5 ± 0.4%
  Purity(%) at day 360 (40° C.): 0%

## CCN(CC)CCOC(=O)C(C)c1ccc(CC(C)C)cc1.Cl (racemic) [C-4, 2-(diethylamino)ethyl (R,S)-2-(p-isobutylphenyl)propionate•HCl salt]
[1]; 3 month, listed as C-1-1
  Purity: 99.9 ± 0.2
[1]; 6 month, listed as C-1-1
  Purity: 99.8 ± 0.2
[1]; 9 month, listed as C-1-1
  Purity: 99.8 ± 0.3
[1]; 12 month
  Purity: 98.1 ± 0.3
[1]; 12 month, listed as C-1-1
  Purity: 99.5 ± 0.3
[1]; 18 month
  Purity: 98.0 ± 0.1
[1]; 18 month, listed as C-1-1
  Purity: 99.8 ± 0.3
[1]; 24 month
  Purity: 97.9 ± 0.3
[1]; 24 month, listed as C-1-1
  Purity: 99.7 ± 0.4
[1]; Day 0, listed as C-1-1
  Purity: 99.8 ± 0.1
[2]; day 28, pH 1.0, 7% in 25% ethanol
  Purity(%) from day 0-28: 69.1 ± 0.2%
[2]; day 28, pH 2.0, 7% in 25% ethanol
  Purity(%) from day 0-28: 80.8 ± 0.4%
[2]; day 28, pH 3.0, 7% in 25% ethanol
  Purity(%) from day 0-28: 92.5 ± 0.3%
[2]; day 28, pH 3.7, 7% in 25% ethanol
  Purity(%) from day 0-28: 97.2 ± 0.4%
[2]; day 28, pH 4.6, 7% in 25% ethanol
  Purity(%) from day 0-28: 97.3 ± 0.3%
[2]; day 28, pH 5.0, 7% in 25% ethanol
  Purity(%) from day 0-28: 94.3 ± 0.2%
[2]; day 28, pH 6.0, 7% in 25% ethanol
  Purity(%) from day 0-28: 89.9 ± 0.3%
[2]; day 28, pH 7.0, 7% in 25% ethanol
  Purity(%) from day 0-28: 52.8 ± 0.4%
[2]; day 28, pH 8.0, 7% in 25% ethanol
  Purity(%) from day 0-28: 35.3 ± 0.3%
[3]; 7% solution in water
  Stability of the solution at a temperature higher than 40° C. and a pH lower than 3 or greater than 6: not stable
